Here are results for 18 molecules from patent US20210070748A1, “INHIBITORS OF BRUTONS TYROSINE KINASE” (Pharmacyclics LLC, priority 2015, published 2021).

One assay has as its target T1, ITK (Homo sapiens, UniProt Q08881).
T1 sequence (Q08881 1-620): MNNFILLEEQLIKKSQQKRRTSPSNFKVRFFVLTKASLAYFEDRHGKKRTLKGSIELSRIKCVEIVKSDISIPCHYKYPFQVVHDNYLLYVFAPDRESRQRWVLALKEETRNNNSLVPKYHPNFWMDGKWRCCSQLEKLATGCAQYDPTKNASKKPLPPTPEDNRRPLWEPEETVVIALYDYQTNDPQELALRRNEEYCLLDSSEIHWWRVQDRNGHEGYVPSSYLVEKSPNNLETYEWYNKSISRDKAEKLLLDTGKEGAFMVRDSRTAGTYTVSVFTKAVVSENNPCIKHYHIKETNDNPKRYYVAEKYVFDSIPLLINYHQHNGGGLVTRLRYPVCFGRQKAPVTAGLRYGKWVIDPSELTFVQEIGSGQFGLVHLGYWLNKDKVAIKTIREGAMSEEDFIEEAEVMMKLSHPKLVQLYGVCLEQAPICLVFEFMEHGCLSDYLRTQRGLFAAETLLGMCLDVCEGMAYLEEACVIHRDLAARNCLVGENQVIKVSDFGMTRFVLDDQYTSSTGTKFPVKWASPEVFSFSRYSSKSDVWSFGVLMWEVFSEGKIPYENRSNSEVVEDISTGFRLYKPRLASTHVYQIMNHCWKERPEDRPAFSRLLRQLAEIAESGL
The assay is described as follows: Inhibition of a panel of kinases, in vitro HotSpot kinase assay: ITK. Format: biochemical. How it is done:
The degree of inhibition of a panel of kinases is determined using the in vitro HotSpot kinase assay (purified enzymes, ^33P-ATP, an appropriate substrate and 1 μM ATP).

Another assay concerns the target T2, BTK-WT (Homo sapiens, UniProt Q06187).
T2 construct: purified from insect cells as a full-length construct containing an N-terminal 6X-His tag; His6 (N); made in house; host or cells: insect cells (baculovirus Sf21 in Method B)
The assay is described as follows: Btk in vitro inhibitory activity (one of Method A TR-FRET, Method B electrophoretic mobility shift, Method C radiometric filter binding). It counts as biochemical. To be noted: read-out: IC50 BTK-WT. The protocol: Btk kinase activity is determined using a time-resolved fluorescence resonance energy transfer (TR-FRET) methodology. Measurements are performed in a reaction volume of 50 μL using 96-well assay plates. […] The reaction is quenched by the addition of 1.2 equivalents of EDTA (relative to divalent cation) in 25 μL of 1× Lance buffer (Perkin-Elmer). […] The TR-FRET signal is measured on a multimode plate reader with an excitation wavelength (λEx) of 330 nm and detection wavelengths (λEm) of 615 and 665 nm. Activity is determined by the ratio of the fluorescence at 665 nm to that at 615 nm. For each compound, enzyme activity is measured at various concentrations of compound. Negative control reactions are performed in the absence of inhibitor in replicates of six, and two no-enzyme controls are used to determine baseline fluorescence levels. Inhibition constants, Ki(app), were obtained using the program BatchKi(Kuzmic et al. (2000), Anal. Biochem. 286:45-50). IC50s are obtained according to the equation:
IC50={Ki(app)/(1+[ATP]/Km^ATP)}+[E]total/2;
Kinase activity is measured in vitro using electrophoretic mobility shift assay. The kinase reactions are assembled in a total volume of 25 μL in 384 well plates. […] The reaction is incubated for one hour and is quenched by the addition of 45 μL of termination buffer (100 mM HEPES, pH7.5, 0.01% Triton X-100, 30 mM EDTA). The terminated reactions are analyzed using 12 channel LabChip® 3000 microfluidic detection instrument (Caliper Life Sciences). […] Change in the relative fluorescence intensity of the substrate and product peaks is the parameter measured, reflecting enzyme activity. In the presence of an inhibitor, the ratio between product and substrate is altered: the signal of the product decreases, while the signal of the substrate increases.
Activity in each sample is determined as the product to sum ratio (PSR): P/(S+P), where P is the peak height of the product peptide and S is the peak height of the substrate peptide. For each compound, enzyme activity is measured at various concentrations (12 concentrations of compound spaced by 3× dilution intervals). Negative control samples (0%-inhibition in the absence of inhibitor) and positive control samples (100%-inhibition, in the presence of 20 mM EDTA) are assembled in replicates of four and are used to calculate %-inhibition values for each inhibitor at each concentration. Percent inhibition (Pinh) is determined using following equation:
Pinh=(PSR0%-PSRinh)/(PSR0%−PSR100%)*100, where PSRinh is the product sum ratio in the presence of inhibitor, PSR0% is the average product sum ration in the absence of inhibitor and PSR100% is the average product sum ratio in 100%-inhibition control samples;
The IC50 values of inhibitors are determined by 4 parameter sigmoidal dose-response model fitting of the inhibition curves (Pinh versus inhibitor concentration) using XLfit 4 software.
Human Btk kinase (Genbank accession # NP_000052) was purified from insect cells as a full-length construct containing an N-terminal 6X-His tag. Btk kinase activity was determined using a radiometric filter binding assay. Measurements are performed in a low μL reaction volume 384-well assay plates. […] IC50 values and curve fits were obtained using Prism (GraphPad Software).
A general note: A gel shift assay detects complexes by their altered migration in electrophoresis.

[1] abbreviates: Table 15, C compounds, 1 μM ATP.

Where two headings read alike, the source gives them in different places.

T2 sequence (Q06187 whole entry): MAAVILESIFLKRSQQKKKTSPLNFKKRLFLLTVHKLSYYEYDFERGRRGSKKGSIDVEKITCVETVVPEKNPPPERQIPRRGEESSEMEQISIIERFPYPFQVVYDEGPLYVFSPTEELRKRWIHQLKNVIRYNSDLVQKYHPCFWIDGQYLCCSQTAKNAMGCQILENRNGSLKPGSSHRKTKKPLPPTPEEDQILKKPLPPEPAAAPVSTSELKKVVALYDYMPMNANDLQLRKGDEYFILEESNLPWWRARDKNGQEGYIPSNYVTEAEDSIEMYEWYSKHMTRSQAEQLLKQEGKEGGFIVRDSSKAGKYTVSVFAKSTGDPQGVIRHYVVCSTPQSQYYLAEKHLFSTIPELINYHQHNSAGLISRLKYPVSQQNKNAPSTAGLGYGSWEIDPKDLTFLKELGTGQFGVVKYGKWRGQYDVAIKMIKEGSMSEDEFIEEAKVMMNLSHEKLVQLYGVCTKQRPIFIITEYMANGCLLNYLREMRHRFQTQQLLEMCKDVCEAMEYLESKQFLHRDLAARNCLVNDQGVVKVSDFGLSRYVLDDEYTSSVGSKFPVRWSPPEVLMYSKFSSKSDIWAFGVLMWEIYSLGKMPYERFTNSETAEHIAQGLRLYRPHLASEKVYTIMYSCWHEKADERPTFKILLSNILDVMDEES

As to `C=CC(=O)N1CCC[C@H](Nc2nnc(C(N)=O)c(Nc3ccc(-c4ncco4)cc3)n2)C1` [Example E-18, (S)-3-(1-acryloylpiperidin-3-ylamino)-5-(4-(oxazol-2-yl)phenylamino)-1,2,4-triazine-6-carboxamide], the half-inhibitory concentration (IC50) – broadly, the midpoint of a concentration-inhibition curve – against ITK (E compounds, Table 17) was 10 to 100 nM; on BTK-WT (E compounds, Table 17), at most 10 nM.
Taken in the same sequence, the figures for `C=CC(=O)N1CCC[C@@H](N(C(=O)C=C)c2nnc(C(N)=O)c(Nc3ccc(C4CC4)cc3)n2)C1` [Example E-37, (R)-3-(N-(1-acryloylpiperidin-3-yl)acrylamido)-5-(4-cyclopropylphenyl-amino)-1,2,4-triazine-6-carboxamide] were 1000 to 10000 nM and at most 10 nM.
As to `C=CC(=O)N1CCC[C@H](Nc2cnc(C(N)=O)c(Nc3ccc(-c4ncccn4)cc3)n2)C1` [Example E-94, (S)-5-(1-acryloylpiperidin-3-ylamino)-3-(4-(pyrimidin-2-yl)phenylamino)pyrazine-2-carboxamide], the half-maximal inhibitory concentration (IC50) against ITK (E compounds, Table 17) is 100 to 1000 nM; at BTK-WT (E compounds, Table 17), at most 10 nM.
Take `C=CC(=O)N1CCCC[C@@H](Nc2nnc(C(N)=O)c(Nc3ccc(C(C)C)cc3)n2)C1` [Example E-20, (R)-3-(1-acryloylazepan-3-ylamino)-5-(4-isopropylphenylamino)-1,2,4-triazine-6-carboxamide]: the concentration for half-maximal inhibition (IC50) on ITK (E compounds, Table 17) was at most 10 nM; at BTK-WT (E compounds, Table 17) it was at most 10 nM.
As to `C=CC(=O)N1CCC[C@@H](Nc2nnc(C(N)=O)c(Nc3ccc(-c4cnn(C(=O)C=C)c4)cc3)n2)C1` [Example E-60, (R)-5-(4-(1-acryloyl-1H-pyrazol-4-yl)phenylamino)-3-(1-acryloylpiperidin-3-ylamino)-1,2,4-triazine-6-carboxamide], the IC50 was 10 to 100 nM at ITK (E compounds, Table 17) and at most 10 nM on BTK-WT (E compounds, Table 17).
Taken in the same sequence, the figures for `C=CC(=O)N[C@@H]1CCC[C@@H](Nc2nnc(C(N)=O)c(Nc3ccc(C(C)C)cc3)n2)C1` [Example E-58, 3-((1R,3R)-3-acrylamidocyclohexyl-amino)-5-(4-isopropylphenylamino)-1,2,4-triazine-6-carboxamide] were 100 to 1000 nM and at most 10 nM.
Consider `C=CC(=O)N[C@@H]1CCCN(c2nnc(C(N)=O)c(Nc3ccc(C(C)C)cc3)n2)C1` [Example A-94, (R)-3-(3-acrylamido-piperidin-1-yl)-5-(4-isopropylphenylamino)-1,2,4-triazine-6-carboxamide], for which the IC50 at ITK (Table 13, A compounds, 1 μM ATP) lay in the range of 100 to 1000 nM; on BTK-WT (Table 13, A compounds), 10 to 100 nM.
Regarding `C=CC(=O)N1CCC[C@@H](Nc2nnc(C(N)=O)c(Nc3ccc(C4(C#N)CC4)cc3)n2)C1` [Example E-38, (R)-3-(1-acryloylpiperidin-3-ylamino)-5-(4-(1-cyanocyclopropyl)phenylamino)-1,2,4-triazine-6-carboxamide], the half-inhibitory concentration (IC50) at ITK (E compounds, Table 17) was at most 10 nM; on BTK-WT (E compounds, Table 17), at most 10 nM.
As to `C=CC(=O)N1CCC[C@H](Nc2cnc(C(N)=O)c(Nc3ccc(-c4ncccn4)cc3)n2)C1` [Example C-36, (S)-5-(1-acryloylpiperidin-3-ylamino)-3-(4-(pyrimidin-2-yl)phenylamino) pyrazine-2-carboxamide], the IC50 against ITK (setting [1]) is 100 to 1000 nM; on BTK-WT (Table 15, C compounds), at most 10 nM.
Taken in the same sequence, the figures for `CN(c1cnc(C(N)=O)c(Nc2ccc(C3(C)CCN(C4CCCC4)CC3)cc2)n1)[C@@H]1CCN(C(=O)C(F)(F)F)C1` [Example C-68, (R)-3-(4-(1-cyclopentyl-4-methylpiperidin-4-yl)phenylamino)-5-(methyl(1-(2,2,2-trifluoroacetyl)pyrrolidin-3-yl)amino)pyrazine-2-carboxamide] were at most 10 nM and at most 10 nM.
With `C=CC(=O)N[C@@H]1CCCN(c2nnc(C(N)=O)c(Nc3ccc(C(C)C)cc3)n2)C1` [Example E-21, (R)-3-(3-acrylamidopiperidin-1-yl)-5-(4-isopropylphenylamino)-1,2,4-triazine-6-carboxamide], the 50% inhibitory concentration (IC50) lay in the range of 100 to 1000 nM at ITK (E compounds, Table 17) and 10 to 100 nM on BTK-WT (E compounds, Table 17).
As for `C=CC(=O)N1CCC[C@@H](N(C(=O)C=C)c2nnc(C(N)=O)c(Nc3ccc(C4(C#N)CC4)cc3)n2)C1` [Example C-50, (R)-3-(N-(1-acryloylpiperidin-3-yl)acrylamido)-5-(4-(1-cyanocyclopropyl)phenylamino)-1,2,4-triazine-6-carboxamide], the concentration for half-maximal inhibition (IC50) is 100 to 1000 nM at ITK (setting [1]) and at most 10 nM on BTK-WT (Table 15, C compounds).
Take `C=CC(=O)N1CCC(C)(c2ccc(Nc3nc(N[C@@H]4CCCN(C(=O)C=C)C4)nnc3C(N)=O)cc2)CC1` [Example E-32, (R)-5-(4-(1-acryloyl-4-methylpiperidin-4-yl)phenylamino)-3-(1-acryloylpiperidin-3-ylamino)-1,2,4-triazine-6-carboxamide]: the half-inhibitory concentration (IC50) was at most 10 nM on ITK (E compounds, Table 17) and at most 10 nM at BTK-WT (E compounds, Table 17).
Turning to `C=CC(=O)N1CCC[C@@H](N(C(=O)C=C)c2nnc(C(N)=O)c(Nc3ccc(C4(C#N)CC4)cc3)n2)C1` [Example E-39, (R)-3-(N-(1-acryloylpiperidin-3-yl)acrylamido)-5-(4-(1-cyanocyclopropyl)phenylamino)-1,2,4-triazine-6-carboxamide], the concentration for half-maximal inhibition (IC50) against ITK (E compounds, Table 17) was 100 to 1000 nM; on BTK-WT (E compounds, Table 17), at most 10 nM.
Taken in the same sequence, the figures for `C=CC(=O)N1CCC[C@H](Nc2cnc(C(N)=O)c(Nc3ccc(C(C)C)cc3)n2)C1` [Example E-101, (S)-5-(1-acryloylpiperidin-3-ylamino)-3-(4-isopropylphenylamino) pyrazine-2-carboxamide] were 100 to 1000 nM and at most 10 nM.
Taken in the same sequence, the figures for `C=CC(=O)N1CCC[C@@H](Nc2nnc(C(N)=O)c(Nc3ccc(CN[C@@H](C)C(C)(C)C)cc3)n2)C1` [Example E-57, 3-((R)-1-acryloylpiperidin-3-ylamino)-5-(4-(((S)-3,3-dimethylbutan-2-ylamino)methyl)phenyl-amino)-1,2,4-triazine-6-carboxamide] were at most 10 nM and at most 10 nM.
`C=CC(=O)N[C@H]1CCC[C@@H](Nc2nnc(C(N)=O)c(Nc3ccc(C(C)C)cc3)n2)C1` [Example E-59, 3-((1R,3S)-3-acrylamidocyclohexyl-amino)-5-(4-isopropylphenylamino)-1,2,4-triazine-6-carboxamide]: the IC50 on ITK (E compounds, Table 17) is 100 to 1000 nM; at BTK-WT (E compounds, Table 17) it was at most 10 nM.
Taken in the same sequence, the figures for `C=CC(=O)N[C@H]1CCCN(c2nnc(C(N)=O)c(Nc3ccc(C(C)C)cc3)n2)C1` [Example E-22, (S)-3-(3-acrylamidopiperidin-1-yl)-5-(4-isopropylphenylamino)-1,2,4-triazine-6-carboxamide] were 100 to 1000 nM and 10 to 100 nM.
